Our source for the IC50 values is BindingDB's records for doi:10.1016/S0960-894X(00)80255-3 (1991).

The structures appear in SMILES notation. pIC50: −log10 of the molar value. Bounds are passed on as bounds.

Chain of Tyrosine-protein kinase Lck (P06239 whole entry): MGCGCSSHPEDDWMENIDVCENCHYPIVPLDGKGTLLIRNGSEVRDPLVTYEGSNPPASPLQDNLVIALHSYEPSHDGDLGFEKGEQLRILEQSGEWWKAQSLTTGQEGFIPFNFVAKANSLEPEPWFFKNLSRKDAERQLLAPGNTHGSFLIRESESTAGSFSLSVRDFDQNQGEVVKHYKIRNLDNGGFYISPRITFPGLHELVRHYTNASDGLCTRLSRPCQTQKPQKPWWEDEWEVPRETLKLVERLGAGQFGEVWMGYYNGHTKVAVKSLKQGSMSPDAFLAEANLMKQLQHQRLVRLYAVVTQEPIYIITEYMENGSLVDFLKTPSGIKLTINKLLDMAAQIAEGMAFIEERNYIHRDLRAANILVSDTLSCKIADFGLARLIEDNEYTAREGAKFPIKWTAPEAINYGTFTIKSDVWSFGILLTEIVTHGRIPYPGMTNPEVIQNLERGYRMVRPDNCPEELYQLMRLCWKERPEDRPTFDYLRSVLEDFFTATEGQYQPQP

The experiment deals with Tyrosine-protein kinase Lck (Homo sapiens, UniProt P06239). Briefly: ChEBML_210745. The source says:
Inhibitory concentration against phosphorylation of angiotensin I catalyzed by protein-tyrosine kinase p56lck
Molecule `O=[N+]([O-])c1ccc(C/N=N/c2ccccc2)cc1` gave a negative-log IC50 (pIC50) below 2.48.

Regarding `COc1ccc(N=NCc2cc(O)ccc2O)cc1` [2-[(4-Methoxy-phenyl)-hydrazonomethyl]-benzene-1,4-diol], the pIC50 was 3.51.

The molecule `O=[N+]([O-])c1ccc(/N=N\Cc2cccc(O)c2O)c([N+](=O)[O-])c1` [3-[(2,4-Dinitro-phenyl)-hydrazonomethyl]-benzene-1,2-diol] had a pIC50 below 2.60.

In turn, `COc1ccc(N=NCc2cccc(O)c2O)cc1` [3-[(4-Methoxy-phenyl)-hydrazonomethyl]-benzene-1,2-diol] gave a pIC50 of 3.51.

Molecule `Oc1ccc(Br)cc1CN=Nc1ccccc1` [4-Bromo-2-(phenyl-hydrazonomethyl)-phenol] gave a pIC50 below 2.58.

Consider `COc1ccc(CN=Nc2ccc(Br)cc2)cc1O` [5-[(4-Bromo-phenyl)-hydrazonomethyl]-2-methoxy-phenol], for which the pIC50 was below 2.60.

The molecule `Brc1ccc(N=NCc2ccccn2)cc1` [N-(4-Bromo-phenyl)-N'-[1-pyridin-2-yl-meth-(E)-ylidene]-hydrazine] gave a negative-log IC50 (pIC50) below 2.54.

Consider `Brc1ccc(N=NCc2cccnc2)cc1` [N-(4-Bromo-phenyl)-N'-[1-pyridin-3-yl-meth-(E)-ylidene]-hydrazine], for which the pIC50 is below 2.54.

With `Brc1ccc(N=NCc2ccncc2)cc1` [N-(4-Bromo-phenyl)-N'-[1-pyridin-4-yl-meth-(E)-ylidene]-hydrazine], the pIC50 is below 2.54.

In the case of `c1ccc(N=NCc2ccccn2)cc1` [N-Phenyl-N'-[1-pyridin-2-yl-meth-(E)-ylidene]-hydrazine], the pIC50 is below 2.39.

The molecule `c1ccc(N=NCc2ccncc2)cc1` [N-Phenyl-N'-[1-pyridin-4-yl-meth-(E)-ylidene]-hydrazine] gave a pIC50 below 2.39.

Turning to `O=[N+]([O-])c1cccc(C/N=N/c2ccccc2)c1` [N-[1-(3-Nitro-phenyl)-meth-(E)-ylidene]-N'-phenyl-hydrazine], the pIC50 is below 2.48.
